# Source: patent US8722849B2, “Polypeptides” (Novo Nordisk A/S, priority 2011, dated 2014)
# Like-named read-outs stand apart in the source and are kept apart here. Starred links: 1 amine or outer side, 2 acyl side, 3 side chain; linkers in the order of their positions; H or OH if unused. Positions of bridges follow the written chain, without caps; N, C: chain ends. Residues, ends and D or L forms follow the SMILES beside them. *: point of attachment. C20 diacid = O=C(O)CCCCCCCCCCCCCCCCCCC(=O)*; C18 diacid = O=C(O)CCCCCCCCCCCCCCCCC(=O)*; γGlu = O=C(O)[C@H](CCC(=O)[*:2])N[*:1]
# Legend:
# food intake = assay: Assay (I) efficacy testing on appetite (food intake), ad libitum fed rat model; type: in vivo, Sprague Dawley (SD) rats; settings: 3 nmol/kg
# Method in brief: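 Food consumption was logged per animal every hour up to 7 h and again at 24 h (occasionally 48 h) after a single 0.01–3 mg/kg dose, given sc, po or ip at dark-phase onset. Ad libitum fed SD rats, 200–250 g, kept on inverted light/dark cycle; vehicle group included, outliers removed by Grubbs test.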
# [1] = molecular target: T1, human amylin receptor (amylin 3(a) receptor: human calcitonin receptor + RAMP-3) (Homo sapiens, UniProt O60896+P30988); assay: Assay (II)a functional CRE-luciferase assay, human amylin receptor; type: cell-based; settings: Table 2; BHK amylin 3(a)-receptor/CRE-luc cells
# T1 construct: expressed in transfected cells; host or cells: BHK570
# T1 sequence (P30988 25-474): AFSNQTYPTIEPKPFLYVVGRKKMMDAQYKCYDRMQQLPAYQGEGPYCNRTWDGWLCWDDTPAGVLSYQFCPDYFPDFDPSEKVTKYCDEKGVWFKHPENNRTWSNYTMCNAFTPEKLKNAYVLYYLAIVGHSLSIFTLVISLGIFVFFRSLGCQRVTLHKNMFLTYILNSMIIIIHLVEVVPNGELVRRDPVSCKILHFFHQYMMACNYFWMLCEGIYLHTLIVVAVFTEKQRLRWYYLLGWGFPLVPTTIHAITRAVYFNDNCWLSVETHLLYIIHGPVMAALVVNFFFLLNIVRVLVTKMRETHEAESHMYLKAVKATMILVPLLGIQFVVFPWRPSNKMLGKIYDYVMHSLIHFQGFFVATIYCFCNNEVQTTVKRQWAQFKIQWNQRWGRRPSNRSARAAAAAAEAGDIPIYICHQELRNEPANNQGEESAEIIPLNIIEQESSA
# T1 sequence (O60896 24-148 partner): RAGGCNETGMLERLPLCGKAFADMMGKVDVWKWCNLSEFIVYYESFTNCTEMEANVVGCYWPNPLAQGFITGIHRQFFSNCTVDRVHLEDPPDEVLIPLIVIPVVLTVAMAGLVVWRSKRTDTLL
# [2] = molecular target: T2, human calcitonin receptor (Homo sapiens, UniProt P30988); assay: Assay (II)a functional CRE-luciferase assay, human calcitonin receptor; type: cell-based; settings: Table 7; human calcitonin (CTa) receptor
# T2 construct: expressed in transfected cells; host or cells: BHK570
# T2 sequence (P30988 25-474): T1 sequence (P30988 25-474)
# [3] = Assay (IV) determination of solubility; type: physicochemical
# Method in brief: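 Solubility was profiled across pH 3.0–8.0 after 18 hours at room temperature: a ~500 nmol/ml aqueous polypeptide solution was diluted 1:1 into 100 mM glycylglycine or bistrispropane buffers. After centrifugation, HPLC gave the dissolved concentration.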
# [4] = bistrispropane buffer, pH 6, pH 6.0, read-out: Solubility pH 6.0
# [5] = bistrispropane buffer, pH 6.5, pH 6.5, read-out: Solubility pH 6.5
# [6] = bistrispropane buffer, pH 7, pH 7.0, 18 hours at room temperature, Table 3, read-out: Solubility pH 7.0
# [7] = bistrispropane buffer, pH 7, pH 7.0, Table 8, read-out: Solubility pH 7.0
# [8] = bistrispropane buffer, pH 7, pH 7.0, read-out: Solubility pH 7.0
# [9] = bistrispropane buffer, pH 7.5, pH 7.5, read-out: Solubility pH 7.5
# [10] = bistrispropane buffer, pH 8, pH 8.0, read-out: Solubility pH 8.0
# [11] = glycylglycine buffer, pH 3, pH 3.0, read-out: Solubility pH 3.0
# [12] = glycylglycine buffer, pH 4, pH 4.0, 18 hours at room temperature, Table 2, read-out: Solubility pH 4.0
# [13] = glycylglycine buffer, pH 4, pH 4.0, read-out: Solubility pH 4.0
# [14] = glycylglycine buffer, pH 5, pH 5.0, read-out: Solubility pH 5.0
EC50 [1] [nM],EC50 [2] [nM],"solubility at 18 h [3, 4] [µM]","solubility at 18 h [3, 5] [µM]","solubility at 18 h [3, 6] [µM]","solubility at 18 h [3, 7] [µM]","solubility at 18 h ([3]; bistrispropane buffer, pH 7, pH 7.0, Table 9, read-out: Solubility pH 7.0) [µM]","solubility at 18 h [3, 8] [µM]","solubility at 18 h ([3]; bistrispropane buffer, pH 7.5, pH 7.5, Table 9, read-out: Solubility pH 7.5) [µM]","solubility at 18 h [3, 9] [µM]","solubility at 18 h [3, 10] [µM]","solubility at 18 h [3, 11] [µM]","solubility at 18 h [3, 12] [µM]","solubility at 18 h [3, 13] [µM]","solubility at 18 h [3, 14] [µM]",SMILES,Food intake reduction 0-24 h 3 nmol/kg (%) (food intake),Food intake reduction 24-48 h 3 nmol/kg (%) (food intake)
0.0255,0.0395,> 200,> 200,> 200,> 200,> 200,> 200,> 200,> 200,> 200,> 200,> 200,> 200,> 200,"CC[C@H](C)[C@H](NC(=O)[C@@H]1CCCN1C(=O)CNC(=O)[C@H](Cc1ccccc1)NC(=O)[C@H](CC(N)=O)NC(=O)[C@H](CC(N)=O)NC(=O)[C@H](CO)NC(=O)[C@H](CO)NC(=O)[C@H](Cc1c[nH]cn1)NC(=O)[C@H](CCCNC(=N)N)NC(=O)[C@H](CC(C)C)NC(=O)[C@H](Cc1ccccc1)NC(=O)[C@H](CCC(=O)O)NC(=O)[C@H](C)NC(=O)[C@H](CC(C)C)NC(=O)[C@H](CCCNC(=N)N)NC(=O)[C@H](CCC(N)=O)NC(=O)[C@@H](NC(=O)[C@H](C)NC(=O)[C@@H]1CSSC[C@H](NC(=O)[C@H](Cc2c[nH]cn2)NC(=O)CNC(=O)CC[C@H](NC(=O)CCCCCCCCCCCCCCCCCCC(=O)O)C(=O)O)C(=O)N[C@@H](CC(N)=O)C(=O)N[C@@H]([C@@H](C)O)C(=O)N[C@@H](C)C(=O)N[C@@H]([C@@H](C)O)C(=O)N1)[C@@H](C)O)C(=O)N[C@@H](CC(C)C)C(=O)N1CCC[C@H]1C(=O)N1CCC[C@H]1C(=O)N[C@H](C(=O)N[C@@H](CC(N)=O)C(=O)N[C@H](C(=O)NCC(=O)N[C@@H](CO)C(=O)N[C@@H](CC(N)=O)C(=O)N[C@H](C(=O)N1CCC[C@H]1C(N)=O)[C@@H](C)O)C(C)C)[C@@H](C)O [Example 89, N-alpha-[(S)-4-Carboxy-4-(19-carboxynonadecanoylamino)butyryl]-Gly-[His1,Glu14,Arg17,Pro37]-pramlintide] ({C20 diacid-γGlu}-GHCNTATCATQRLAEFLRHSSNNFGPILPPTNVGSNTP-NH2; disulfide 3-8 (inferred))",42,23
0.0469,0.0792,> 200,> 200,169,169,–,169,–,197,> 200,> 200,> 200,> 200,> 200,"CC[C@H](C)[C@H](NC(=O)[C@@H]1CCCN1C(=O)CNC(=O)[C@H](Cc1ccccc1)NC(=O)[C@H](CC(N)=O)NC(=O)[C@H](CC(N)=O)NC(=O)[C@H](CO)NC(=O)[C@H](CO)NC(=O)[C@H](Cc1c[nH]cn1)NC(=O)[C@H](Cc1c[nH]cn1)NC(=O)[C@H](CC(C)C)NC(=O)[C@H](Cc1ccccc1)NC(=O)[C@H](CCC(=O)O)NC(=O)[C@H](C)NC(=O)[C@H](CC(C)C)NC(=O)[C@H](CCCNC(=N)N)NC(=O)[C@H](CCC(N)=O)NC(=O)[C@@H](NC(=O)[C@H](C)NC(=O)[C@@H]1CSSC[C@H](NC(=O)[C@H](CCCCN)NC(=O)CC[C@H](NC(=O)CCCCCCCCCCCCCCCCC(=O)O)C(=O)O)C(=O)N[C@@H](CC(N)=O)C(=O)N[C@@H]([C@@H](C)O)C(=O)N[C@@H](C)C(=O)N[C@@H]([C@@H](C)O)C(=O)N1)[C@@H](C)O)C(=O)N[C@@H](CC(C)C)C(=O)N1CCC[C@H]1C(=O)N1CCC[C@H]1C(=O)N[C@H](C(=O)N[C@@H](CC(N)=O)C(=O)N[C@H](C(=O)NCC(=O)N[C@@H](CO)C(=O)N[C@@H](CC(N)=O)C(=O)N[C@H](C(=O)N[C@@H](Cc1ccc(O)cc1)C(N)=O)[C@@H](C)O)C(C)C)[C@@H](C)O [Example 46, N-alpha-[(S)-4-Carboxy-4-(17-carboxyheptadecanoylamino)butyryl]-[Glu14,His17]-pramlintide] ({C18 diacid-γGlu}-KCNTATCATQRLAEFLHHSSNNFGPILPPTNVGSNTY-NH2; disulfide 2-7 (inferred); C-terminus assumed)",54,27
0.164,0.156,> 200,8,–,–,–,–,–,10,65,> 200,> 200,> 200,> 200,"CC[C@H](C)[C@H](NC(=O)[C@@H]1CCCN1C(=O)CNC(=O)[C@H](Cc1ccccc1)NC(=O)[C@H](CC(N)=O)NC(=O)[C@H](CC(N)=O)NC(=O)[C@H](CO)NC(=O)[C@H](CO)NC(=O)[C@H](Cc1c[nH]cn1)NC(=O)[C@H](Cc1c[nH]cn1)NC(=O)[C@H](CC(C)C)NC(=O)[C@H](Cc1ccccc1)NC(=O)[C@H](CCC(=O)O)NC(=O)[C@H](C)NC(=O)[C@H](CC(C)C)NC(=O)[C@H](CCCNC(=N)N)NC(=O)[C@H](CCC(N)=O)NC(=O)[C@@H](NC(=O)[C@H](C)NC(=O)[C@@H]1CSSC[C@H](NC(=O)[C@H](Cc2c[nH]cn2)NC(=O)[C@H](Cc2c[nH]cn2)NC(=O)[C@H](Cc2c[nH]cn2)NC(=O)CC[C@H](NC(=O)CCCCCCCCCCCCCCCCCCC(=O)O)C(=O)O)C(=O)N[C@@H](CC(N)=O)C(=O)N[C@@H]([C@@H](C)O)C(=O)N[C@@H](C)C(=O)N[C@@H]([C@@H](C)O)C(=O)N1)[C@@H](C)O)C(=O)N[C@@H](CC(C)C)C(=O)N1CCC[C@H]1C(=O)N1CCC[C@H]1C(=O)N[C@H](C(=O)N[C@@H](CC(N)=O)C(=O)N[C@H](C(=O)NCC(=O)N[C@@H](CO)C(=O)N[C@@H](Cc1c[nH]cn1)C(=O)N[C@H](C(=O)N[C@@H](Cc1ccc(O)cc1)C(N)=O)[C@@H](C)O)C(C)C)[C@@H](C)O [Example 31, N-alpha-[(S)-4-Carboxy-4-(19-carboxynonadecanoylamino)butyryl]-His-His-[His1,Glu14,His17,His35]-pramlintide] ({C20 diacid-γGlu}-HHHCNTATCATQRLAEFLHHSSNNFGPILPPTNVGSHTY-NH2; disulfide 4-9 (inferred); C-terminus assumed)",–,–
0.136,0.18,> 200,84,–,–,–,74,–,163,> 200,> 200,> 200,> 200,> 200,"CC[C@H](C)[C@H](NC(=O)[C@@H]1CCCN1C(=O)CNC(=O)[C@H](Cc1ccccc1)NC(=O)[C@H](CC(N)=O)NC(=O)[C@H](CC(N)=O)NC(=O)[C@H](CO)NC(=O)[C@H](CO)NC(=O)[C@H](Cc1c[nH]cn1)NC(=O)[C@@H](NC(=O)[C@H](CC(C)C)NC(=O)[C@H](Cc1ccccc1)NC(=O)[C@H](CCC(=O)O)NC(=O)[C@H](C)NC(=O)[C@H](CC(C)C)NC(=O)[C@H](CCCNC(=N)N)NC(=O)[C@H](CCC(N)=O)NC(=O)[C@@H](NC(=O)[C@H](C)NC(=O)[C@@H]1CSSC[C@H](NC(=O)[C@H](CCCCN)NC(=O)CC[C@H](NC(=O)CCCCCCCCCCCCCCCCCCC(=O)O)C(=O)O)C(=O)N[C@@H](CC(N)=O)C(=O)N[C@@H]([C@@H](C)O)C(=O)N[C@@H](C)C(=O)N[C@@H]([C@@H](C)O)C(=O)N1)[C@@H](C)O)C(C)C)C(=O)N[C@@H](CC(C)C)C(=O)N1CCC[C@H]1C(=O)N1CCC[C@H]1C(=O)N[C@H](C(=O)N[C@@H](CC(N)=O)C(=O)N[C@H](C(=O)NCC(=O)N[C@@H](CO)C(=O)N[C@@H](Cc1c[nH]cn1)C(=O)N[C@H](C(=O)N[C@@H](Cc1ccc(O)cc1)C(N)=O)[C@@H](C)O)C(C)C)[C@@H](C)O [Example 93, N-alpha-[(S)-4-Carboxy-4-(19-carboxynonadecanoylamino)butyryl]-[Glu14,His35]-pramlintide] ({C20 diacid-γGlu}-KCNTATCATQRLAEFLVHSSNNFGPILPPTNVGSHTY-NH2; disulfide 2-7 (inferred); C-terminus assumed)",–,–
